# Assay results taken from US20260102383A1, “LPAR1 Inhibitors” (AbbVie Inc., priority 2024, published 2026).
# Target: T1, human LPAR1 (Homo sapiens, UniProt Q92633)
# T1 construct: host or cells: TangoEDG2-bla U2OS cells
# Test: Arrestin assay (Arrestin Reporter EDG2-bla U2OS), inhibition of LPA-stimulated signal
# Type: cell-based
# Settings: TangoEDG2-bla U2OS cells expressing human LPAR1; 0.25 μM LPA; read-out: Arrestin Reporter EDG2-bla U2OS Human Merged IC50
# Experimental: The inhibitory activity of compounds 15, 62, 77, 84 and 169 against LPAR1 was measured using an Arrestin assay in U2OS cells expressing human LPAR1.
# FreeStyle media was warmed in a 37° C. water bath. Cryo-preserved vial(s) of TangoEDG2-bla U2OS cells were rapidly thawed in a 37° C. water bath. The thawed cells were added to FreeStyle media and cells were pelleted at 300×g for 5 minutes. The supernatant was aspirated, and cells were resuspended in FreeStyle media. Cell density was adjusted to 0.25×10^6 cells/mL. Cells (1×10^4 in 40 μL) were added to each well of Greiner 384 well black cell plate(s). Cell plate(s) were placed in a humidified 37° C./5% CO2 incubator for 18-20 hours. Dilutions of test compound were prepared at 6× final concentration; 12-point, 3-fold dilutions using HH Buffer (1×HBSS plus 20 mM HEPES). The 6× test compound was then added to the cell plate(s) at 10 μL/well. The final concentration ranged from 10 μM to 0.00006 μM. Cell plate(s) were incubated in a humidified 37° C./5% CO2 incubator for 1 hour. During the incubation, 6×LPA was prepared at 1.5 μM in 0.1% BSA HH Buffer. After the 1-hour incubation of test compound with cells, the LPA was added to the cell plate(s) at 10 μL/well (final LPA concentration of 0.25 μM). Cell plate(s) were returned to a humidified 37° C./5% CO2 incubator for 3 hours. The Development solution was made up per the LiveBLAzerFRET B/G kit protocol. The Development solution was added to the cell plate(s) at 10 μL/well. Cell plates were incubated in the dark at room temperature for 2 hours. Plate(s) were read on an Envision Plate Reader (Perkin Elmer) to read fluorescence; excitation at 409 nm with emission at 460 nm and 530 nm. Raw Data for analysis is the ratio of emission at 460 nm divided by emission 530 nm. The formula used to determine % Inhibition is as follows (1−(Raw Data−Low Average)/(High Average−Low Average))*100. Percent Inhibition was plotted to determine IC50 value with GraphPad Prism 9.5.0 software using Variable slope 4-parameter curve fit analysis.
# Additional compounds of the present disclosure were synthesized in a manner similar to the compounds described above and understood by a person of ordinary skill in the art. The inhibitory activity of the compounds of the present disclosure against LPAR1 was measured using the above-referenced Arrestin Assay protocol.
# T1 sequence (Q92633 whole entry): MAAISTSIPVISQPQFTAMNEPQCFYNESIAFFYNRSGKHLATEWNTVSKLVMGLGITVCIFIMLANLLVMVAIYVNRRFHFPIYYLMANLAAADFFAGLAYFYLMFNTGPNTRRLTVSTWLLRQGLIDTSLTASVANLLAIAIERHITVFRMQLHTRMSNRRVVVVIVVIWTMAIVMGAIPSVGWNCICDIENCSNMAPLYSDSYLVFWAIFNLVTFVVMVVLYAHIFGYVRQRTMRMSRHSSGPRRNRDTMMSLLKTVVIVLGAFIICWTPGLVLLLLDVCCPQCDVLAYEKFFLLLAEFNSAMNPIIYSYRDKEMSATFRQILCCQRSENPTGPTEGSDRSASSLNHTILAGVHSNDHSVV
row,SMILES,IC50 [nM]
1,"CC(C)c1ccnn1C1(C(=O)Nc2ccc(Cl)cc2OC(F)F)CCN(C[C@@H](C(=O)O)N2CCOCC2)CC1 (single isomer, unassigned) [Compound 150, (25)-3-[4-[[4-chloro-2-(difluoromethoxy)phenyl]carbamoyl]-4-(5-isopropylpyrazol-1-yl)-1-piperidyl]-2-morpholino-propanoic acid]",99.5
2,"CC(C)c1ccnn1C1(C(=O)Nc2ccc(Cl)cc2OC(F)F)CCN(C[C@@H](C(=O)O)[C@@H]2CCOC2)CC1 (single isomer, unassigned) [Compound 151]",75
3,"CC(C)c1ccnn1C1(C(=O)Nc2ccc(Cl)cc2OC(F)F)CCN(C[C@H](C(=O)O)[C@@H]2CCOC2)CC1 (single isomer, unassigned) [Compound 152]",41.1
4,"CC(C)c1ccnn1C1(C(=O)Nc2ccc(Cl)cc2OC(F)F)CCN(C[C@H](C(=O)O)c2cnn(C)c2)CC1 (single isomer, unassigned) [Compound 154]",64.1
5,"CC(C)c1ccnn1C1(C(=O)Nc2ccc(Cl)cc2OC(F)F)CCN(C[C@H](CC#N)C(=O)O)CC1 (single isomer, unassigned) [Compound 163]",38.5
6,"COC[C@H](CN1CCC(C(=O)Nc2ccc(Cl)cc2OC(F)F)(n2ncc(F)c2C(C)C)CC1)C(=O)O (single isomer, unassigned) [Compound 170]",33.1
7,"CO[C@H]1CC[C@@H]([C@H](CN2CCC(C(=O)Nc3ccc(Cl)cc3OC(F)F)(n3nccc3C(C)C)CC2)C(=O)O)CC1 (single isomer, unassigned) [Compound 184]",77.3
8,"CO[C@H]1CC[C@H]([C@H](CN2CCC(C(=O)Nc3ccc(Cl)cc3OC(F)F)(n3nccc3C(C)C)CC2)C(=O)O)CC1 (single isomer, unassigned) [Compound 185]",57.4
9,"CC(C)c1ccnn1C1(C(=O)Nc2ccc(Cl)cc2OC(F)F)CCN([C@H]2CC[C@H](C(=O)O)OC2)CC1 (single isomer, unassigned) [Compound 192]",65.6
10,"CO[C@]1(C(=O)O)C[C@@H](N2CCC(C(=O)Nc3ccc(Cl)cc3OC(F)F)(n3nccc3C(C)C)CC2)C1 (single isomer, unassigned) [Compound 194, (1r,3r)-3-[4-[[4-chloro-2-(difluoromethoxy)phenyl]carbamoyl]-4-(5-isopropylpyrazol-1-yl)-1-piperidyl]-1-methoxy-cyclobutanecarboxylic acid]",90.6
11,"CC(C)c1c(Cl)cnn1C1(C(=O)Nc2ccc(Cl)cc2OC(F)F)CCN(C[C@@H](C(=O)O)C2CCOCC2)CC1 (single isomer, unassigned) [Compound 197]",14
12,"CC(C)c1c(Cl)cnn1C1(C(=O)Nc2ccc(Cl)cc2OC(F)F)CCN(C[C@H](C(=O)O)C2CCOCC2)CC1 (single isomer, unassigned) [Compound 198]",31.2
13,"CC(C)c1ccnn1C1(C(=O)Nc2ccc(Cl)cc2OC(F)F)CCN(CC2(C(=O)O)CCOC2)CC1 (stereo in doubt) [Compound 23, (3S)-3-[[4-[[4-chloro-2-(difluoromethoxy)phenyl]carbamoyl]-4-(5-isopropylpyrazol-1-yl)-1-piperidyl]methyl]tetrahydrofuran-3-carboxylic acid]",28.4
14,"CC(C)c1ccnn1C1(C(=O)Nc2ccc(Cl)cc2OC(F)F)CCN(CC(=O)O)CC1 [Compound 1, 2-[4-[[4-chloro-2-(difluoromethoxy)phenyl]carbamoyl]-4-(5-isopropylpyrazol-1-yl)-1-piperidyl]acetic acid]",54.8
15,"CC(C)c1ccnn1C1(C(=O)Nc2ccc(Cl)cc2OC(F)F)CCN(CCC(C)(C)C(=O)O)CC1 [Compound 2, 4-[4-[[4-chloro-2-(difluoromethoxy)phenyl]carbamoyl]-4-(5-isopropylpyrazol-1-yl)-1-piperidyl]-2,2-dimethyl-butanoic acid]",50.3
16,"CC(C)c1ccnn1C1(C(=O)Nc2ccc(Cl)cc2OC(F)F)CCN(CC2(C(=O)O)CCOCC2)CC1 [Compound 3, 4-[[4-[[4-chloro-2-(difluoromethoxy)phenyl]carbamoyl]-4-(5-isopropylpyrazol-1-yl)-1-piperidyl]methyl]tetrahydropyran-4-carboxylic acid]",14.7
17,"CC(C)c1ccnn1C1(C(=O)Nc2ccc(Cl)cc2OC(F)F)CCN(CC2(C(=O)O)CCN(C(=O)OC(C)(C)C)CC2)CC1 [Compound 4, 1-tert-butoxycarbonyl-4-[[4-[[4-chloro-2-(difluoromethoxy)phenyl]carbamoyl]-4-(5-isopropylpyrazol-1-yl)-1-piperidyl]methyl] piperidine-4-carboxylic acid]",22.8
18,"CC(=O)N1CCC(CN2CCC(C(=O)Nc3ccc(Cl)cc3OC(F)F)(n3nccc3C(C)C)CC2)(C(=O)O)CC1 [Compound 5, 1-acetyl-4-[[4-[[4-chloro-2-(difluoromethoxy)phenyl]carbamoyl]-4-(5-isopropylpyrazol-1-yl)-1-piperidyl]methyl]piperidine-4-carboxylic acid]",87.3
19,"CCOC(=O)N1CCC(CN2CCC(C(=O)Nc3ccc(Cl)cc3OC(F)F)(n3nccc3C(C)C)CC2)(C(=O)O)CC1 [Compound 6, 4-[[4-[[4-chloro-2-(difluoromethoxy)phenyl]carbamoyl]-4-(5-isopropylpyrazol-1-yl)-1-piperidyl]methyl]-1-ethoxycarbonyl-piperidine-4-carboxylic acid]",24.7
20,"C=CC(=O)N1CCC(CN2CCC(C(=O)Nc3ccc(Cl)cc3OC(F)F)(n3nccc3C(C)C)CC2)(C(=O)O)CC1 [Compound 7, 4-[[4-[[4-chloro-2-(difluoromethoxy)phenyl]carbamoyl]-4-(5-isopropylpyrazol-1-yl)-1-piperidyl]methyl]-1-prop-2-enoyl-piperidine-4-carboxylic acid]",50.8
21,"CC(C)c1ccnn1C1(C(=O)Nc2ccc(Cl)cc2OC(F)F)CCN(CC2(C(=O)O)CCN(C(=O)OCc3ccccc3)CC2)CC1 [Compound 8, 1-benzyloxycarbonyl-4-[[4-[[4-chloro-2-(difluoromethoxy)phenyl]carbamoyl]-4-(5-isopropylpyrazol-1-yl)-1-piperidyl]methyl]piperidine-4-carboxylic acid]",3.31
22,"COC(=O)CC(=O)N1CCC(CN2CCC(C(=O)Nc3ccc(Cl)cc3OC(F)F)(n3nccc3C(C)C)CC2)(C(=O)O)CC1 [Compound 9, 4-[[4-[[4-chloro-2-(difluoromethoxy)phenyl]carbamoyl]-4-(5-isopropylpyrazol-1-yl)-1-piperidyl]methyl]-1-(3-methoxy-3-oxo-propanoyl)piperidine-4-carboxylic acid]",128
23,"CC(C)c1ccnn1C1(C(=O)Nc2ccc(Cl)cc2OC(F)F)CCN(CC2(C(=O)O)CCN(C(=O)Oc3ccc(F)cc3)CC2)CC1 [Compound 10, 4-[[4-[[4-chloro-2-(difluoromethoxy)phenyl]carbamoyl]-4-(5-isopropylpyrazol-1-yl)-1-piperidyl]methyl]-1-(4-fluorophenoxy)carbonyl-piperidine-4-carboxylic acid]",7.53
24,"CC(C)c1ccnn1C1(C(=O)Nc2ccc(Cl)cc2OC(F)F)CCN(CC(C(=O)O)C2CCOCC2)CC1 (stereo not drawn) [Compound 11, 3-[4-[[4-chloro-2-(difluoromethoxy)phenyl]carbamoyl]-4-(5-isopropylpyrazol-1-yl)-1-piperidyl]-2-tetrahydropyran-4-yl-propanoic acid]",52.6
